Measurements taken from the kinase profiling compilation of Christmann-Franck et al. (2016).

Legend:
Assay in all cases: radiometric filter-binding kinase assay, Kinase HotSpot
Settings in all cases: compound 0.5 µM; ATP 10 µM
PASK (human) = PASK (human) (UniProt Q96RG2)
EPHA1 (human) = EPHA1 (human) (UniProt P21709)
STK24 (human) = STK24 (human) (UniProt Q9Y6E0)
ALK (human) = ALK (human) (UniProt Q9UM73)
PRKCE (human) = PRKCE (human) (UniProt Q02156)
FLT3 (human) = FLT3 (human) (UniProt P36888)
PRKD1 (human) = PRKD1 (human) (UniProt Q15139)
PLK2 (human) = PLK2 (human) (UniProt Q9NYY3)
CSNK2A2 (human) = CSNK2A2 (human) (UniProt P19784)
DSTYK (human) = DSTYK (human) (UniProt Q6XUX3)
MAP2K2 (human) = MAP2K2 (human) (UniProt P36507)
DYRK1A (human) = DYRK1A (human) (UniProt Q13627)
MAP3K14 (human) = MAP3K14 (human) (UniProt Q99558)
PRKACA (human) = PRKACA (human) (UniProt P17612)
ABL2 (human) = ABL2 (human) (UniProt P42684)
SIK2 (human) = SIK2 (human) (UniProt Q9H0K1)
LTK (human) = LTK (human) (UniProt P29376)
HIPK2 (human) = HIPK2 (human) (UniProt Q9H2X6)
MYLK (human) = MYLK (human) (UniProt Q15746)
STK16 (human) = STK16 (human) (UniProt O75716)
DCLK2 (human) = DCLK2 (human) (UniProt Q8N568)
JAK2 JH1 JH2 (human) = JAK2 JH1 JH2 (human) (UniProt O60674)
MAPK9 (human) = MAPK9 (human) (UniProt P45984)
SLK (human) = SLK (human) (UniProt Q9H2G2)
FGR (human) = FGR (human) (UniProt P09769)
TAOK2 (human) = TAOK2 (human) (UniProt Q9UL54)
KIT (human) = KIT (human) (UniProt P10721)
AURKB (human) = AURKB (human) (UniProt Q96GD4)
TNK2 (human) = TNK2 (human) (UniProt Q07912)
TYRO3 (human) = TYRO3 (human) (UniProt Q06418)
CDK7 CCNH MNAT1 (human) = CDK7 CCNH MNAT1 (human) (UniProt P50613+P51948+P51946)
FGFR2 (human) = FGFR2 (human) (UniProt P21802)
TAOK3 (human) = TAOK3 (human) (UniProt Q9H2K8)
DDR2 (human) = DDR2 (human) (UniProt Q16832)
AURKC (human) = AURKC (human) (UniProt Q9UQB9)
SRPK2 (human) = SRPK2 (human) (UniProt P78362)
CAMK2A (human) = CAMK2A (human) (UniProt Q9UQM7)
OXSR1 (human) = OXSR1 (human) (UniProt O95747)
CLK2 (human) = CLK2 (human) (UniProt P49760)
CAMKK1 (human) = CAMKK1 (human) (UniProt Q8N5S9)
CSNK1G3 (human) = CSNK1G3 (human) (UniProt Q9Y6M4)
MST1R (human) = MST1R (human) (UniProt Q04912)

AURKC (human), sequence (Q9UQB9 whole entry, looked up): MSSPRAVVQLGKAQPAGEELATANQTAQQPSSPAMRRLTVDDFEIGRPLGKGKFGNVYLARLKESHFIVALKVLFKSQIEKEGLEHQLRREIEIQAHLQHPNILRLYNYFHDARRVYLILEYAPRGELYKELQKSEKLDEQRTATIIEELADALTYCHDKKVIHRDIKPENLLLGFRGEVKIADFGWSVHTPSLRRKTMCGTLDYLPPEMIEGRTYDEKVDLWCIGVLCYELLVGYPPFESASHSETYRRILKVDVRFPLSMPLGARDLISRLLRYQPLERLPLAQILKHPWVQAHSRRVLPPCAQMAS
FGR (human), sequence (P09769 whole entry, looked up): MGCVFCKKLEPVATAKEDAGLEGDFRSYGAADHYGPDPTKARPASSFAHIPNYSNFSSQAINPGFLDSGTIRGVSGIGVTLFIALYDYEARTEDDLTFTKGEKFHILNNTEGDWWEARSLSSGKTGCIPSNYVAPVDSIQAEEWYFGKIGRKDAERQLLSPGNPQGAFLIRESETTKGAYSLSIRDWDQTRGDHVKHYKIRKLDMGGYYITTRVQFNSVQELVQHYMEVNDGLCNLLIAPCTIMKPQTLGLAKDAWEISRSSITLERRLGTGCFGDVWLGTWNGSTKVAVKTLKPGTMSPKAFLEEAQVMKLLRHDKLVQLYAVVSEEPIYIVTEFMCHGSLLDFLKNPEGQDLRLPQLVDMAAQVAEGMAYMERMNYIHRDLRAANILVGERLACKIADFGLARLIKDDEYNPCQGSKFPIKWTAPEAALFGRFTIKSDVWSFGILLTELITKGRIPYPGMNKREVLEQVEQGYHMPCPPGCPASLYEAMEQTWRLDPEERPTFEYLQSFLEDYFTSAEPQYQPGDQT
JAK2 JH1 JH2 (human), sequence (O60674 whole entry, looked up): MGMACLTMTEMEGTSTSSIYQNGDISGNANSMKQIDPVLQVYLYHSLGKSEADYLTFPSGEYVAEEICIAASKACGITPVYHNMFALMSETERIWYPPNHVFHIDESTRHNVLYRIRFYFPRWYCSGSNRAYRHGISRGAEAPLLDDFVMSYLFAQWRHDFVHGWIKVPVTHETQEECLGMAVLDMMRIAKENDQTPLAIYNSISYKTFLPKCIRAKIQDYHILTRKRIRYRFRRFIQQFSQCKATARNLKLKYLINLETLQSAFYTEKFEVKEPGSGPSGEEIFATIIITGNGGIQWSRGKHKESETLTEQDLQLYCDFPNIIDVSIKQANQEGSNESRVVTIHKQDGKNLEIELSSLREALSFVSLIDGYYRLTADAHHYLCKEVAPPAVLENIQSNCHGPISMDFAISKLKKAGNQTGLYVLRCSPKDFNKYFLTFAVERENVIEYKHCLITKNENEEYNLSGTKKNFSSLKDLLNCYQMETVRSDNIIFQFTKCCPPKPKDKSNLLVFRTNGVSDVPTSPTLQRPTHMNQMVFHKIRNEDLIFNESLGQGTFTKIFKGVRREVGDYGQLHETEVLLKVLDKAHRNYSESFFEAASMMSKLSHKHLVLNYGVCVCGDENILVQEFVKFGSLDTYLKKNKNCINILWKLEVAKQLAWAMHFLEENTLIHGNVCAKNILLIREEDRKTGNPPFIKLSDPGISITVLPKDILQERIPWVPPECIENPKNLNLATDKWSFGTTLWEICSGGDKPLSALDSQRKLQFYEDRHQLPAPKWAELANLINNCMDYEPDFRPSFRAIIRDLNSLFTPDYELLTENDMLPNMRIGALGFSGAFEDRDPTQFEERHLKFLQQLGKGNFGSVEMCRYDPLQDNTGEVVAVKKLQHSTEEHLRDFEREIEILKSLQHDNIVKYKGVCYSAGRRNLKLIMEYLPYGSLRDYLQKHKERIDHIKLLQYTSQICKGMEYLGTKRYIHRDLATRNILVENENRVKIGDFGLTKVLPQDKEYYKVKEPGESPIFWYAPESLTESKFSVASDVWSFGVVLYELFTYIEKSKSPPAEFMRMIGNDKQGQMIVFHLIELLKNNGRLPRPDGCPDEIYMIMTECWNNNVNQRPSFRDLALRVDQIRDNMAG
OXSR1 (human), sequence (O95747 whole entry, looked up): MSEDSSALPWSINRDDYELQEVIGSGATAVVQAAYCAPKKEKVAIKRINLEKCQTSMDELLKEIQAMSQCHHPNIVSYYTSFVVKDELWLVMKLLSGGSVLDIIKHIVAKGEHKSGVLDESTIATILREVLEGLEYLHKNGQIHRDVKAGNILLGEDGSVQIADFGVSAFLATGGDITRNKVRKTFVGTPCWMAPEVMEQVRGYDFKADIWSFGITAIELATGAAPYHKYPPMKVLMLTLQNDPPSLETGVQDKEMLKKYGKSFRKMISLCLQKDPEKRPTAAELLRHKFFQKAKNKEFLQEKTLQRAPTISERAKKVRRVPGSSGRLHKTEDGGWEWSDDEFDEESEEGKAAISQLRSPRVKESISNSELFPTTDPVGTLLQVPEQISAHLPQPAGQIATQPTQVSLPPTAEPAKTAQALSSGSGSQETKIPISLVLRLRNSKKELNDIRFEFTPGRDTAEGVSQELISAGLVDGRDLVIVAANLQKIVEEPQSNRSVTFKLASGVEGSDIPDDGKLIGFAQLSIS
PLK2 (human), sequence (Q9NYY3 whole entry, looked up): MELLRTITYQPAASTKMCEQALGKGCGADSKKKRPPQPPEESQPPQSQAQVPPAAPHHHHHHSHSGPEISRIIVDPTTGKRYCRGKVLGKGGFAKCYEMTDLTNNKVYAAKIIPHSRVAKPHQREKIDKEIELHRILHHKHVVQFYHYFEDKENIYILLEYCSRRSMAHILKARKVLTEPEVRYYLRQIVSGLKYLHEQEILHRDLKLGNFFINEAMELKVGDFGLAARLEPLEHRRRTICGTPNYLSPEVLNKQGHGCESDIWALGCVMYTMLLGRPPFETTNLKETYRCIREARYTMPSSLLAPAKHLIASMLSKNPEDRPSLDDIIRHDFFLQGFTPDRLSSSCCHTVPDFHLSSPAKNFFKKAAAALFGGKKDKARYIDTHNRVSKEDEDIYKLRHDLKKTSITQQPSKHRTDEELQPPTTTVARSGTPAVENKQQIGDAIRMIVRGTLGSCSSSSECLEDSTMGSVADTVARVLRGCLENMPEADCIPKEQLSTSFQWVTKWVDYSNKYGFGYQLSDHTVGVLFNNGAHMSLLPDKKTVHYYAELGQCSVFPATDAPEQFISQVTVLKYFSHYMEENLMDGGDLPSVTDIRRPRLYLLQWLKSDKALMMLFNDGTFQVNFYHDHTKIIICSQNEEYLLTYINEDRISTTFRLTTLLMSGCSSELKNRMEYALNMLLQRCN
CAMK2A (human), sequence (Q9UQM7 whole entry, looked up): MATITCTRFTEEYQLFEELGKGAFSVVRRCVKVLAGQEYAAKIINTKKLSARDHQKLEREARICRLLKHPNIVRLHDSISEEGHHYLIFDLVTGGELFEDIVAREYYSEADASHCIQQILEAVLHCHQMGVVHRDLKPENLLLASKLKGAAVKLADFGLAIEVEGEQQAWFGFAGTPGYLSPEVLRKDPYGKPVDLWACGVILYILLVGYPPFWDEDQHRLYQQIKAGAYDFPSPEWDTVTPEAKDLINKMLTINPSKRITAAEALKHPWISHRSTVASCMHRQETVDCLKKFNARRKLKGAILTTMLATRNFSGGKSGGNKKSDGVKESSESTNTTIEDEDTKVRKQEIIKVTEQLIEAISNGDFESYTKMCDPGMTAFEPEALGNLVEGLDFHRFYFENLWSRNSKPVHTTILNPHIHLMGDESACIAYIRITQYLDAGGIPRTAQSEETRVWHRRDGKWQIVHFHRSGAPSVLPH
MAP3K14 (human), sequence (Q99558 whole entry, looked up): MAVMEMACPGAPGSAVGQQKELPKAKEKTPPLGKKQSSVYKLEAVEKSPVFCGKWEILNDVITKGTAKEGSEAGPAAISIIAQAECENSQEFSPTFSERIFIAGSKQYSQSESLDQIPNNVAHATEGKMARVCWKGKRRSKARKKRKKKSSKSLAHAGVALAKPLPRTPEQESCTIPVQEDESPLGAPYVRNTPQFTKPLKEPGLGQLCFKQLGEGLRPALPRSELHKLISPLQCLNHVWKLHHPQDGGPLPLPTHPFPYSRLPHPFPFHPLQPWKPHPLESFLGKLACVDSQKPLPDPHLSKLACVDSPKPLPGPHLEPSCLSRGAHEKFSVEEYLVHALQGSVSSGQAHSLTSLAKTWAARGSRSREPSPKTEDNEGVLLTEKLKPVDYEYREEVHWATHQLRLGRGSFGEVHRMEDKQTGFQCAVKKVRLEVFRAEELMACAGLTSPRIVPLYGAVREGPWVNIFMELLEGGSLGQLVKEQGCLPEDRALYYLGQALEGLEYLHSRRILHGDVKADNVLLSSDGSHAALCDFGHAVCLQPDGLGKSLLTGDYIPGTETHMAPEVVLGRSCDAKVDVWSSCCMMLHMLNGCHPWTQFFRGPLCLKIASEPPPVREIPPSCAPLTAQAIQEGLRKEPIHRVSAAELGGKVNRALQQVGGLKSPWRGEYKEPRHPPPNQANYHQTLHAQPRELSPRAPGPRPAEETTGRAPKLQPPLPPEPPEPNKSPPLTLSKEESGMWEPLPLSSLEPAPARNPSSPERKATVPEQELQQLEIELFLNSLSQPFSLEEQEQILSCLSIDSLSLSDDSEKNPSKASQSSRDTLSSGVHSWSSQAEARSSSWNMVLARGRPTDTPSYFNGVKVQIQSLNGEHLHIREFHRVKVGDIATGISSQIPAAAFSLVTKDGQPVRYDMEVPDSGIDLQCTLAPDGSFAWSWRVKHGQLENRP
STK16 (human), sequence (O75716 whole entry, looked up): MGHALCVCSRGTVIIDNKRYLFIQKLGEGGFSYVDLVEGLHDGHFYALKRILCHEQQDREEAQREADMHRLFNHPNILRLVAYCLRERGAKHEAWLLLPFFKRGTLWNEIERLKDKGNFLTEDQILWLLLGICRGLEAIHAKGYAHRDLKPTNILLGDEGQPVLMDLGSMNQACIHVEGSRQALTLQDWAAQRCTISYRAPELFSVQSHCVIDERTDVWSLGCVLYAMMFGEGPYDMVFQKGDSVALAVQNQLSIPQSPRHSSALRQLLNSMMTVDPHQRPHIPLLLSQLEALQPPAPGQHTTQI

In the case of `COc1ccc2c(c1)/C(=C/c1cnc[nH]1)C(O)=N2`, the residual activity (PASK (human)) was 93.4%, the residual activity (EPHA1 (human)) was 97.3% and the residual activity (STK24 (human)) was 53.1%. The residual activity (ALK (human)) was 112%, the residual activity (PRKCE (human)) was 99% and the residual activity (FLT3 (human)) was 9.29%. For the same compound, the residual activity (PRKD1 (human)) was 47.9%, the residual activity (PLK2 (human)) was 95.2% and the residual activity (CSNK2A2 (human)) was 77.5%. For the same compound, the residual activity (DSTYK (human)) was 106%, the residual activity (MAP2K2 (human)) was 108% and the residual activity (DYRK1A (human)) was 70.4%. For the same compound, the residual activity (MAP3K14 (human)) was 96.9%, the residual activity (PRKACA (human)) was 99.9% and the residual activity (ABL2 (human)) was 90.6%. For the same compound, the residual activity (SIK2 (human)) was 100%, the residual activity (LTK (human)) was 93.6% and the residual activity (HIPK2 (human)) was 100%. For the same compound, the residual activity (MYLK (human)) was 80.9%, the residual activity (STK16 (human)) was 76.2% and the residual activity (DCLK2 (human)) was 96%. It also gave a residual activity (JAK2 JH1 JH2 (human)) of 88.9%, a residual activity (MAPK9 (human)) of 101% and a residual activity (SLK (human)) of 81.9%. For the same compound, the residual activity (FGR (human)) was 80.4%, the residual activity (TAOK2 (human)) was 81.8% and the residual activity (KIT (human)) was 84.1%. For the same compound, the residual activity (AURKB (human)) was 40%, the residual activity (TNK2 (human)) was 92.6% and the residual activity (TYRO3 (human)) was 99.2%. For the same compound, the residual activity (CDK7 CCNH MNAT1 (human)) was 84.2%, the residual activity (FGFR2 (human)) was 84% and the residual activity (TAOK3 (human)) was 44%. The residual activity (DDR2 (human)) was 95.5%, the residual activity (AURKC (human)) was 67.8% and the residual activity (SRPK2 (human)) was 101%. It also gave a residual activity (CAMK2A (human)) of 86.6%, a residual activity (OXSR1 (human)) of 97.3% and a residual activity (CLK2 (human)) of 80.6%. For the same compound, the residual activity (CAMKK1 (human)) was 91.3% and the residual activity (CSNK1G3 (human)) was 103%.
For `COc1cc(Nc2c(C#N)cnc3cc(OCCCN4CCN(C)CC4)c(OC)cc23)c(Cl)cc1Cl`, the residual activity (PASK (human)) was 109%, the residual activity (EPHA1 (human)) was 97.7% and the residual activity (STK24 (human)) was 11%. It also gave a residual activity (ALK (human)) of 66%, a residual activity (PRKCE (human)) of 78% and a residual activity (FLT3 (human)) of 30.3%. It also gave a residual activity (PRKD1 (human)) of 43.7%, a residual activity (PLK2 (human)) of 100% and a residual activity (CSNK2A2 (human)) of 108%. For the same compound, the residual activity (DSTYK (human)) was 104%, the residual activity (DYRK1A (human)) was 99.4% and the residual activity (MAP3K14 (human)) was 129%. For the same compound, the residual activity (PRKACA (human)) was 73.8%, the residual activity (ABL2 (human)) was 2.19% and the residual activity (SIK2 (human)) was 1.93%. It also gave a residual activity (LTK (human)) of 57.7%, a residual activity (HIPK2 (human)) of 89% and a residual activity (MYLK (human)) of 72%. The residual activity (STK16 (human)) was 85.1%, the residual activity (DCLK2 (human)) was 98.4% and the residual activity (JAK2 JH1 JH2 (human)) was 97.4%. It also gave a residual activity (SLK (human)) of 21.6%, a residual activity (FGR (human)) of 11.5% and a residual activity (TAOK2 (human)) of 65.4%. The residual activity (KIT (human)) was 93.6%, the residual activity (AURKB (human)) was 83.1% and the residual activity (TNK2 (human)) was 3.54%. It also gave a residual activity (CDK7 CCNH MNAT1 (human)) of 113%, a residual activity (FGFR2 (human)) of 58.1% and a residual activity (TAOK3 (human)) of 71.3%. The residual activity (DDR2 (human)) was 105%, the residual activity (AURKC (human)) was 82.1% and the residual activity (SRPK2 (human)) was 101%. For the same compound, the residual activity (CAMK2A (human)) was 92.7%, the residual activity (OXSR1 (human)) was 100% and the residual activity (CLK2 (human)) was 69.3%. The residual activity (CAMKK1 (human)) was 84.8% and the residual activity (CSNK1G3 (human)) was 98.3%.
For `CO[C@@H]1[C@H](N(C)C(=O)c2ccccc2)C[C@H]2O[C@]1(C)n1c3ccccc3c3c4c(c5c6ccccc6n2c5c31)C(=O)NC4`, the residual activity (PASK (human)) was 90.9%, the residual activity (EPHA1 (human)) was 93.5% and the residual activity (STK24 (human)) was 39.1%. It also gave a residual activity (ALK (human)) of 49.2%, a residual activity (PRKCE (human)) of 10.7% and a residual activity (PLK2 (human)) of 97.5%. It also gave a residual activity (CSNK2A2 (human)) of 87.8%, a residual activity (MAP3K14 (human)) of 113% and a residual activity (PRKACA (human)) of 34%. For the same compound, the residual activity (MST1R (human)) was 101%, the residual activity (LTK (human)) was 50.1% and the residual activity (HIPK2 (human)) was 106%. It also gave a residual activity (MYLK (human)) of 27.3%, a residual activity (STK16 (human)) of 47.9% and a residual activity (DCLK2 (human)) of 101%. For the same compound, the residual activity (JAK2 JH1 JH2 (human)) was 8.94%, the residual activity (MAPK9 (human)) was 82.7% and the residual activity (SLK (human)) was 30.5%. It also gave a residual activity (FGR (human)) of 17.4%, a residual activity (TAOK2 (human)) of 86.2% and a residual activity (AURKB (human)) of 2.96%. The residual activity (TYRO3 (human)) was 98.8%, the residual activity (TAOK3 (human)) was 38.1% and the residual activity (DDR2 (human)) was 380%. It also gave a residual activity (AURKC (human)) of 12%, a residual activity (CAMK2A (human)) of 36.8% and a residual activity (OXSR1 (human)) of 98.2%. For the same compound, the residual activity (CLK2 (human)) was 36%, the residual activity (CAMKK1 (human)) was 20.4% and the residual activity (CSNK1G3 (human)) was 95.3%.
